The assay has as its system Gli-responsive luciferase reporter cells, SUFU pathway antagonism. Briefly: Gli-SUFU pathway antagonists, dose response, cell-based, luciferase luminescence, uHTS hits (AID 602464).

Calls of active or inactive are those of the source. Cut-off read from the data, not from the text of the source: active = IC50 below about 20 µM; inactive = the rest.

The results in this text go back to PubChem BioAssay AID602464 (Sanford-Burnham Center for Chemical Genomics, 2012).

What is called IC50 is the concentration that gives 50% inhibition. Turning to `CCN(CC)S(=O)(=O)c1ccc(S(=O)(=O)N2CCCC(C(=O)NC3CC3)C2)cc1` (stereo unspecified), the IC50 was 7.52 µM. Regarding `COc1ccc(NS(=O)(=O)c2cccc(NC(=O)c3ccc(S(=O)(=O)N4CCCCCC4)cc3)c2)cc1`, the half-maximal inhibitory concentration (IC50) was 7.51 µM.

For `COc1ccc(CNCC(O)COc2cccc3c2OC(C)(C)C3)cc1` (stereo unspecified), the IC50 was 5.99 µM. With `CN1/C(=C\C(=O)COC(=O)CNC(=O)c2ccc3ccccc3c2)C(C)(C)c2ccccc21`, the IC50 is 9.73 µM.

As for `CCn1c(C)nc2cc(-c3nnc(-c4c(-c5ccccc5)noc4C)o3)ccc21`, the 50% inhibitory concentration (IC50) was 7.36 µM. The figure for `O=C1N/C(=C\c2ccc(O)cc2)C(O)=C1C=NCc1ccccc1` is 4.73 µM; for `N=c1c(-c2nc3ccccc3[nH]2)cc(C(=O)c2ccco2)nn1-c1ccccc1` it is > 20 µM (inactive).

As for `FC(F)Oc1ccc(-n2cc(-c3ccccc3)[n+]3c2CCCCC3)cc1`, the IC50 was 8.14 µM. The figure for `O=c1c2ccccc2nc2n1C(CSCc1cccc(C(F)(F)F)c1)CS2` (stereo unspecified) is 3.92 µM; for `O=C(C[n+]1cc(-c2ccccc2)n2c1CCCCC2)c1ccc(Cl)cc1` it is > 20 µM (inactive); for `O=C(c1cc2sccc2n1Cc1ccc(F)cc1)N1CCN(c2nc3ccccc3s2)CC1` it is 4.32 µM.

With `CCCOc1ccc(Br)cc1CSC(=N)N`, the IC50 was 9.84 µM. The figure for `CCCCCCCN1C2=NCCCN2c2ccccc21` is 11.4 µM; for `COCCNc1nc2c(c(=O)n(C)c(=O)n2C)n1Cc1cccc(C)c1` it is 7.26 µM; for `CCOC(=O)C1CCCN(S(=O)(=O)c2ccc(S(=O)(=O)N(CC)CC)cc2)C1` (stereo unspecified) it is 3.29 µM.

As to `Cc1cc(C)c[n+](C(C)C(=O)c2ccc(-c3ccccc3)cc2)c1` (stereo unspecified), the IC50 was 5.92 µM.

On to `CCOc1ccc(-n2c(O)c(/C=N/Nc3nc(C)cc(C)n3)c3ccccc3c2=O)cc1`, for which the IC50 was 7.13 µM.

`CCOc1ccc(S(=O)(=O)NCc2ccncc2)cc1NC(=O)c1ccccc1`: the IC50 was 0.94 µM. The value for `COCCNC(=O)CSCc1nc(-c2ccc(SC)cc2)oc1C` was 8.46 µM; that for `Cc1ccc(C2=C(CC(=O)O)C(=O)CC2)cc1` was > 20 µM (inactive); that for `O=C(Cn1cc(C(=O)C2CC2)c2ccccc21)Nc1ccccc1Cl` was 11.2 µM. For the compound `CN(CCOc1ccc(Cl)cc1)C(=O)c1cccc(S(=O)(=O)N2CCN(c3ccc(F)cc3)CC2)c1`, the concentration for half-maximal inhibition (IC50) is 5.59 µM. For the compound `O=C(N/N=C/c1cc2ccccc2nc1Cl)[C@H]1C[C@@H]1c1ccccc1`, the half-inhibitory concentration (IC50) is 16.4 µM. As to `Cc1sc2ncnc(NCc3cccs3)c2c1C`, the half-inhibitory concentration (IC50) was 8.05 µM.

As for `Cc1sc2ncnc(NCC(O)c3ccc([N+](=O)[O-])cc3)c2c1C` (stereo unspecified), the IC50 is 4.75 µM. Consider `COc1ccc(-n2c(-c3ccc(Cl)cc3)c[n+]3c2CCc2ccccc2-3)cc1`, for which the IC50 is 1.78 µM. With `CCCCOC(=O)c1[nH]c2c(c1C)C(=O)CC(c1cc(OC)c(OC)c(OC)c1)C2` (stereo unspecified), the IC50 is 2.22 µM. In the case of `Cc1ccc(NCC(=O)Nc2cccc(S(=O)(=O)N(C)C)c2)cc1S(=O)(=O)N1CCCCCC1`, the 50% inhibitory concentration (IC50) is 14.5 µM. Consider `Cn1c(=O)c2c(nc(NCc3ccco3)n2Cc2ccc(Cl)cc2Cl)n(C)c1=O`, for which the IC50 is 0.647 µM. For `CC(C)C[C@H]1CN=C(N(C)C)N1CCCCc1ccccc1`, the IC50 is 7.93 µM. As for `CC(=O)/C(=N\Nc1ccc(Cl)cc1Cl)Sc1cccc2cccnc12`, the IC50 is 1.12 µM. On to `CCCCCCCOc1ccc(OC(=O)c2ccncc2)cc1`, for which the IC50 was 0.954 µM.

`C=CCOc1nc2c(c(=O)n(C)c(=O)n2C)n1Cc1ccc(Cl)cc1`: the IC50 is 7.97 µM. Turning to `CC(=O)c1c(C)[nH]c(C(=O)OCC(=O)Nc2sc3c(c2C#N)CCCC3)c1C`, the half-maximal inhibitory concentration (IC50) was 5.59 µM. As to `COC(=O)C1=C(c2cc3ccccc3o2)C[C@@H]2CC[C@H]1N2C(=O)N1CCC(C)CC1`, the IC50 was 16.3 µM. In the case of `CCCCn1c(CN(C)Cc2ccccc2)nc2c1c(=O)n(C)c(=O)n2C`, the half-maximal inhibitory concentration (IC50) was 6.85 µM. As to `c1ccc(Cn2c(-c3ccccc3)c[n+]3c2SCCC3)cc1`, the IC50 was 6.59 µM. Take `O=C(Nc1cc2c3c(c1)C1CCCC1CN3CC1CCCC21)c1ccc([N+](=O)[O-])cc1` (stereo unspecified): the IC50 was 5.09 µM. The value for `CC(C)n1c(-c2ccco2)csc1=Nc1cccnc1` was 8.01 µM; that for `Cc1ccc2c(c1)c(C)cc[n+]2Cc1ccccc1` was 8.76 µM. Consider `COc1ccc(N2CCN(c3ncnc4c3[nH]c3ccccc34)CC2)cc1`, for which the IC50 is 2.52 µM.

In the case of `CC(=O)c1c(C)[nH]c(C(=O)OCC(=O)Nc2cccc(S(=O)(=O)N3CCCC3)c2)c1C`, the IC50 is 6.51 µM. The figure for `COc1ccc(-c2noc(CCCCC(=O)N3CCN(c4cc(C)ccc4C)CC3)n2)cc1` is 4 µM. For the compound `CCN(CC)C(=O)c1ccc(S(=O)(=O)N2CCC(c3nc4ccccc4s3)CC2)cc1`, the IC50 is 8.85 µM.

With `CC(C)Cn1c(N)c(C(=O)COC(=O)C2Cc3ccccc3CN2S(C)(=O)=O)c(=O)n(C)c1=O` (stereo unspecified), the IC50 is > 20 µM (inactive). With `Cc1ccc2c(c1)S/C(=C/c1ccc[n+](C)c1)N2CCO`, the IC50 is 15.2 µM. With `COc1ccc2c(c1)c(C)cc[n+]2Cc1ccccc1`, the half-inhibitory concentration (IC50) is 3.86 µM. In the case of `CC(NC(=O)c1cc2c(=O)n3ccccc3nc2n(CC2CCCO2)c1=N)c1ccccc1` (stereo unspecified), the IC50 is > 20 µM (inactive). With `COc1ccccc1-n1c(-c2ccccc2)c[n+]2c1CCc1ccccc1-2`, the IC50 was 3.63 µM. Consider `Cc1cccc(C)c1NC(=S)N(CCN1CCCCCC1)Cc1ccco1`, for which the IC50 is > 20 µM (inactive).

In the case of `c1ccc(-c2c[n+]3c(n2-c2ccccc2)SCC3)cc1`, the IC50 is 9.72 µM. In the case of `COCCNc1nc2c(c(=O)n(C)c(=O)n2C)n1Cc1cccc(C(F)(F)F)c1`, the IC50 was 3.55 µM. As for `Fc1ccc(-n2nnnc2-c2cnc(-c3cccs3)nc2C(F)(F)F)cc1`, the half-maximal inhibitory concentration (IC50) was 6.43 µM. Consider `COc1cc(C(=O)NC2CCN(C)CC2)ccc1Nc1ncc2c(n1)N(CCc1ccccc1)CCC(=O)N2C`, for which the IC50 was 4.62 µM.

As to `Nc1ccc(Br)cc1-c1nc2ccccc2[nH]c1=O`, the IC50 was 0.771 µM. On to `O=C(Cn1c(-c2ccccc2)c[n+]2ccsc12)c1ccc(Br)cc1`, for which the IC50 was > 20 µM (inactive). For `Cc1cc(NC(=O)CSc2nc3c([nH]c4ccccc43)c(=O)n2-c2ccccc2F)no1`, the IC50 is 13.8 µM. The value for `CCCOc1ccccc1N/C(=N/c1nc(C)cc(C)n1)NC(=O)COc1ccc(OC)cc1` was 7.7 µM; that for `Cc1nc2ncccn2c1-c1csc(Nc2ccc(O)cc2)n1` was 4.37 µM; that for `CCOC(CN=c1nc(N(C)C)ss1)OCC` was > 20 µM (inactive).

`COc1cc(C(=O)NC2CCN(C)CC2)ccc1Nc1ncc2c(n1)N(Cc1ccccc1)CCC(=O)N2C`: the IC50 was 1.28 µM. For `CCOP(=O)(CCP(=O)(OCC)OCC)OCC.C[CH2][Sn]([Cl])([Cl])[CH2]C`, the IC50 was 6.24 µM. For the compound `O=C(Nc1ccc(C(F)(F)F)cc1)C1CCN(S(=O)(=O)c2ccc(N3CCCC3=O)cc2)CC1`, the 50% inhibitory concentration (IC50) was 3.22 µM. The value for `CCN1C(=O)CCN(C2CCCC2)c2nc(Nc3ccc(C(=O)NC4CCN(C)CC4)cc3OC)ncc21` was 3.45 µM; that for `C[C@@H]1COC(=O)[C@@H](NC(=O)OCC2c3ccccc3-c3ccccc32)C/C=C\C[C@@H](CC(=O)N(CCO)Cc2ccccc2)C(=O)N1` was > 20 µM (inactive); that for `CC1CCC(NC(=O)c2cccc(S(=O)(=O)N3CCN(c4ccccc4)CC3)c2)CC1` (stereo unspecified) was 9.93 µM. Regarding `Cc1csc2ncnc(NCCc3ccccn3)c12`, the concentration for half-maximal inhibition (IC50) is 7.09 µM.

Regarding `CCOC(=O)c1c(NC(=O)COc2ncnc3ccccc23)sc(C(C)=O)c1C`, the IC50 was 10.1 µM. As for `Cc1ccc(NC(=O)COc2ccccc2C(N)=O)cc1S(=O)(=O)N1CCCCCC1`, the IC50 is 12.3 µM. Turning to `CC(C)(C)[C@H]1COC(=O)[C@H](NC(=O)OCC2c3ccccc3-c3ccccc32)C/C=C\C[C@@H](CC(=O)N[C@@H](CO)Cc2ccccc2)C(=O)N1`, the IC50 is 11.9 µM.

In the case of `Cc1nc2ccccc2c2oc(C(=O)N3CCN(C4CCCCC4)CC3)cc12`, the IC50 is 18.7 µM.

In the case of `Cc1cccnc1CN1CCN(C(=O)c2cc(COc3ccc4ncccc4c3)on2)CC1`, the concentration for half-maximal inhibition (IC50) was 5.18 µM.

For `CCC(C)NC(=O)CCC(=O)OC1O[C@H]2OC3(C)CC[C@H]4[C@H](C)CCC(C1C)C24OO3` (stereo partly specified), the IC50 was 0.421 µM. The figure for `CC(CC(=O)N1CCN(c2cccc(Cl)c2)CC1)S(=O)(=O)c1ccc2c(c1)NC(=O)CO2` (stereo unspecified) is 6.43 µM. The figure for `COc1cccc(CN(C)C(=O)c2cc(COc3ccc4ncccc4c3)on2)c1` is 5.39 µM.

For the compound `CC1CCCCC1NS(=O)(=O)c1ccc(S(=O)(=O)NCc2ccncc2)cc1` (stereo unspecified), the IC50 is 5.58 µM. Take `O=C(Nc1ccccc1)C1=C[C@@H](C2CCCCC2)C[C@@H](OCCCCO)O1`: the IC50 is 1.96 µM. The value for `CCn1c(=O)cc(SCC(=O)N2CCN(C3CCCCC3)CC2)c2ccccc21` was 11.9 µM; that for `COc1ccc(CNc2cc(C)nc3ncnn23)c(OC)c1` was 10.6 µM; that for `O=S(=O)(NCc1ccncc1)c1ccc(S(=O)(=O)NCC2CCCO2)cc1` (stereo unspecified) was 11.5 µM.

Take `O=C(NC1CCCC1)c1cc(COc2ccc3ncccc3c2)on1`: the IC50 is 5.18 µM. On to `Cc1c(C(C)C)c(=O)n(-c2ccc(S(=O)(=O)NC3CCCCC3)cc2)n1C`, for which the half-inhibitory concentration (IC50) was 4.15 µM. On to `CCN(CC)S(=O)(=O)c1ccc(S(=O)(=O)Nc2c(C)nn(C)c2C)cc1`, for which the IC50 is 6.15 µM. As to `C=CCOC(=O)c1[nH]c2c(c1C)C(=O)CC(c1cc(OC)c(OC)c(OC)c1)C2` (stereo unspecified), the IC50 was 1.98 µM. Take `O=C(c1cnc(N2CCN(c3ccccn3)CC2)c2ccccc12)N1CCN(c2cccc(Cl)c2)CC1`: the IC50 was 11.4 µM. On to `O=C(N[C@@H]1C/C=C\C[C@@H](CC(=O)N(CCO)Cc2ccccc2)C(=O)N[C@@H](c2ccccc2)COC1=O)OCC1c2ccccc2-c2ccccc21`, for which the IC50 is 11.9 µM.

With `Cc1ccc(-c2csc(NC(=O)c3c(C)noc3C)n2)s1`, the IC50 is 5.53 µM. For `CC1CCN(Cc2c(C(=O)N/N=C/c3ccccc3O)nnn2-c2nonc2N)CC1`, the IC50 was 5.56 µM. Consider `O=C(C1CCCCC1)N1CCN(c2ccnc3cc(Cl)ccc23)CC1`, for which the IC50 was 4.29 µM.

Take `CCOC(=O)c1sc2nc(CC(=O)OC)nc(NCc3ccc(Cl)cc3)c2c1C`: the 50% inhibitory concentration (IC50) is 9.23 µM. As to `COc1ccc(C(=O)C[n+]2cc(-c3ccc(OC)cc3)n3c2CCCC3)cc1`, the IC50 was 6.41 µM.
